# Entries after “also recorded” stand apart in the source; their conditions may differ. Like-named read-outs stand apart in the source and are kept apart here.
# Key:
# [1] = molecular target: T1, VIM-2 (Escherichia coli, UniProt Q5U7L7); experiment: VIM-2 CCF2 kinetic assay; type: biochemical; details: VIM-2, CCF2 format; SD of 3 replicates
# [2] = molecular target: T1, VIM-2; type: biochemical
# [3] = molecular target: T1, VIM-2; type: biochemical; details: for effect of absence of zinc in the assay buffer on potency: with vs without 50 μM ZnSO4
# [4] = molecular target: IMP-1 (Serratia marcescens, UniProt P52699); experiment: biochemical; type: biochemical; details: for inhibition at 56 µM: read-out: Max Inhibition @ Tested Concentration, IMP-1 Nitrocefin
# [5] = molecular target: TEM-1 (Escherichia coli, UniProt P62593); experiment: TEM-1 nitrocefin assay; type: biochemical; details: for inhibition at 25 µM: read-out: Max Inhibition @ Tested Concentration, TEM-1 Nitrocefin; for inhibitory activity against TEM-1 (in words): highest concentration tested 25 μM
# [6] = molecular target: AmpC (Enterobacter cloacae, UniProt P05364); experiment: AmpC nitrocefin assay; type: biochemical, E.cloacae; details: for inhibition at 25 µM: read-out: Max Inhibition @ Tested Concentration, AmpC Nitrocefin; for inhibitory activity against AmpC (in words): highest concentration tested 25 μM
# [7] = tested on: resistant E. coli (BL21/VIM-2); experiment: Imipenem MIC potentiation by a single dose of inhibitor; type: cell-based; details: for Imipenem MIC @ 50 μM of compound: BL21+VIM-2; for potentiation of imipenem efficacy (in words): resistant E. coli (BL21/VIM-2)
# [8] = molecular target: T1, VIM-2; experiment: VIM-2 FRET; type: biochemical; details: @ 36 μM
# [9] = tested on: non-resistant (BL21) E. coli; experiment: MIC assay, non-resistant strain; type: cell-based
# [10] = tested on: resistant (BL21/VIM-2) E. coli; type: cell-based
# [11] = tested on: BL21/VIM2 E. coli; type: cell-based; details: checkerboard microdilution
# [12] = molecular target: T1, VIM-2; experiment: Rapid dilution experiment
# TEM-1, sequence (P62593 24-286 limits assumed): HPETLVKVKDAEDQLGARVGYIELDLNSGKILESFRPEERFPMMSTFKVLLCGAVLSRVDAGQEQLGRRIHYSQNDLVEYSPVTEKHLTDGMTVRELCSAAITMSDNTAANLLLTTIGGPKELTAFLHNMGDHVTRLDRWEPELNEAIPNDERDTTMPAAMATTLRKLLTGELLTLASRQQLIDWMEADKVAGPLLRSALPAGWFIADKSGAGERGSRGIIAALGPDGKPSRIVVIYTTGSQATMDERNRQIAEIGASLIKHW
# IMP-1, sequence (P52699 19-246 limits assumed): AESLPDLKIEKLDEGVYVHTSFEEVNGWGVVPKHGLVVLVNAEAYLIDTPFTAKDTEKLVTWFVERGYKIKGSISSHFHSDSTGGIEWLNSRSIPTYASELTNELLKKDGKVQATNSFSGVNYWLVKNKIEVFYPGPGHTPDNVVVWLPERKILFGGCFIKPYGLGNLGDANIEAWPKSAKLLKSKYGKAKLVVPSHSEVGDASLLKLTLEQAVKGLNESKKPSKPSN
# AmpC, sequence (P05364 21-381): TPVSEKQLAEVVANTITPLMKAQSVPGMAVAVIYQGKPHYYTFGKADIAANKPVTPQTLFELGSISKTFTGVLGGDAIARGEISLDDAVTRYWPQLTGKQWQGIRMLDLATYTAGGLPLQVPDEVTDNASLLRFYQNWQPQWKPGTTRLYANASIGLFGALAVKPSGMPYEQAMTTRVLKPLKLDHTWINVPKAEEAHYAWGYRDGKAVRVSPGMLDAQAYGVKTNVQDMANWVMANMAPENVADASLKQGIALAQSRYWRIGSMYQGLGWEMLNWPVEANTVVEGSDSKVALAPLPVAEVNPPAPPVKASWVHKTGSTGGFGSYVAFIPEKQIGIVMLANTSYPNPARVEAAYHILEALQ
Compound,mechanism of inhibition [2],effect of absence of zinc in the assay buffer on potency [3],IC50 [4] [µM],activity in the IMP-1 nitrocefin assay (in words) [4],inhibition at 56 µM [4] [%],IC50 [5] [µM],inhibition at 25 µM [5] [%],IC50 [6] [µM],inhibition at 25 µM [6] [%],Imipenem MIC @ 50 μM of compound [7] [µg/mL],inhibitory activity against TEM-1 (in words) [5],inhibitory activity against AmpC (in words) [6],potentiation of imipenem efficacy (in words) [7],other results
O=C(CNC(=O)c1cc2cc(Cl)c(O)cc2oc1=O)N[C@@H]1C(=O)N2C(C(=O)O)=C(CSc3ccc4c(c3)C(=O)OC43c4ccc(O)cc4Oc4cc(O)ccc43)CS[C@H]12 [CCF2],,,,,,,,,,,,,,Km [1]: 21 ± 7 µM
"C#CCCOCc1nn[nH]c1CNS(=O)(=O)c1ccc(I)cc1 [Compound 1, 4-Iodo-N-((4-((but-3-ynyloxy)methyl)-1H-1,2,3-triazol-5-yl)methyl)benzenesulfonamide]",competitive inhibitors,not significantly affected by the absence of zinc; also recorded: independent of the concentration of zinc,> 56,inactive,0,> 25,0,> 25,0,1.9,,,,
"COCc1nn[nH]c1CNS(=O)(=O)c1ccc(I)cc1 [Compound 2, 4-Iodo-N-((4-(methoxymethyl)-1H-1,2,3-triazol-5-yl)methyl)benzenesulfonamide]",competitive inhibitors,not significantly affected by the absence of zinc; also recorded: independent of the concentration of zinc,> 56,inactive,0,> 25,0,> 25,0,1.9,,,,
"O=C1c2c(O)ccc(O)c2C(=O)c2c(NCCNCCO)ccc(NCCNCCO)c21 [Mitoxantrone, 1,4-Dihydroxy-5,8-bis([2-([2-hydroxyethyl]amino)ethyl]amino)-9,10-anthracenedione]",,not significantly affected by the absence of zinc,> 56,did not exhibit any inhibitory activity,0,> 25,0,> 25,0,0.2,did not exhibit any inhibitory activity,did not exhibit any inhibitory activity,completely reverse the effects of VIM-2 on imipenem potency; also recorded: potentiate imipenem efficacy,activity in the IMP-1 nitrocefin assay (in words) ([4]; listed as mitoxantrone): inactive at the range of concentrations tested
"O=C(O)c1cc[c]([Hg][Cl])cc1 [pCMB, 4-chloromercuribenzoic acid]",slowly reversible or irreversible inhibitor; also recorded: irreversible / slowly reversible,not significantly affected by the absence of zinc,,modest potency; also recorded: demonstrated potency,,,,,,0.2,no inhibitory activity,no inhibitory activity,completely reverse the effects of VIM-2 on imipenem potency; also recorded: potentiate imipenem efficacy,"Max Inhibition @ Tested Concentration, VIM-2 (Nitrocefin) ([3]; @ 15 μM): NA ^(e) (80% @ 15 μM); Max Inhibition @ Tested Concentration, VIM-2 (CCF2) [8]: NA (83% @ 36 μM); Max Inhibition @ Tested Concentration, IMP-1 Nitrocefin ([4]; @ 140 μM, 15 minutes of preincubation): NA (82% @ 140 μM); Max Inhibition @ Tested Concentration, TEM-1 Nitrocefin ([5]; @ 25 μM): 0%; IC50 ([5]; read-out: IC50 TEM-1 Nitrocefin): > 25 µM; Max Inhibition @ Tested Concentration, AmpC Nitrocefin ([6]; @ 25 μM): 0%; IC50 ([6]; read-out: IC50 AmpC Nitrocefin): > 25 µM; Compound MIC [9]: 17.9 µg/mL; Compound MIC [10]: 17.9 µg/mL; MIC alone [11]: 17.9 µg/mL; inhibition of VIM-2 ([12]; 24 μM, incubated 30 minutes at room temperature): 90%; recovery of VIM-2 activity after dilution ([12]; after 15 minutes, 1:100 dilution from 24 μM): 16.5%"

# From publication PMC2759276 (Bioorganic & medicinal chemistry, 2009)
